Measured values from US20060063828A1 (priority 2004, published 2006).

Columns and labels:
VCAM-1 = assay: In Vitro VCAM-1 Assay (ELISA of VCAM-1 on TNF-α stimulated endothelial cells); assay type: cell-based; settings: Endothelial cell; primary human aortic (HAEC) or pulmonary (HPAEC) endothelial cells, TNF-α (1 ng/ml), approximately 16 hours
Method: Cell Culture and compound dosing: Cultured primary human aortic (HAEC) or pulmonary (HPAEC) endothelial cells were obtained from Clonetics, Inc., and were used below passage 9. Cells were seeded in 96 well plates such that they would reach 90-95% confluency by the following day. On the following day the cells were stimulated with TNF-α (1 ng/ml) in the presence or absence of compounds dissolved in DMSO such that the final concentration of DMSO is 0.25% or less. To establish a dose curve for each compound, four concentrations in 2- to 5-fold increments were used. Cells were exposed to TNF-α and compounds for approximately 16 hours. The next day the cells were examined under microscope to score for visual signs of toxicity or cell stress.
Following 16 hr exposure to TNF-α and compound the media was discarded and the cells were washed once with Hanks Balanced Salt Solution (HBSS)/Phosphate buffered saline (PBS) (1:1). Primary antibodies against VCAM-1 (0.25 μg/ml in HBSS/PBS+5% FBS) were added and incubated for 30-60 minutes at 37° C. Cells were washed with HBSS/PBS three times, and secondary antibody Horse Radish Peroxidase (HRP)-conjugated goat anti-mouse IgG (1:500 in HBSS/PBS+5% FBS) were added and incubated for 30 minutes at 37° C. Cells were washed with HBSS/PBS four time and TMB substrate were added and incubated at room temperature in the dark until there was adequate development of blue color. The length of time of incubation was typically 5-15 minutes. 2N sulfuric acid was added to stop the color development and the data was collected by reading the absorbance on a BioRad ELISA plate reader at OD 450 nm. The results are expressed as IC50 values (the concentration (micromolar) of compound required to inhibit 50% of the maximal response of the control sample stimulated by TNF-α only).

Balb/C mice = assay: Asthma Protocol (ovalbumin sensitized and challenged mice, bronchoaveolar lavage cell counts); assay type: in vivo; settings: ovalbumin sensitized and aerosol challenged, lavage fluid cell counts
Method: Balb/C mice (6-8 weeks old) are sensitized to ovalbumin (ova) (8 ug ova absorbed in 3.3 mg Alum inject) on days 0 and 5. On day 12, the mice were aerosol challenged with 0.5% ovalbumin dissolved in sterile saline for 1 h in the AM, and then again in the PM (at least 4 h apart). On day 14, the mice were anesthetized with ketamine/xylazine/acepromazine cocktail, exsanguinated, and then euthanized. Following blood collection, bronchoaveolar lavage was performed on each animal. Total cell counts were conducted on the lavage fluid. The lavage fluid was processed and slides were made by spinning the samples with a cytospin centrifuge. Slides were airdried and stained using Diff-Quik® stain. Cell differentials of the lavage fluid were completed at the conclusion of the study. Statistical analysis involved ANOVA and Tukey-Kramer post hoc tests. Compounds were administered by subcutaneous injection twice daily from day 11-13. The formulations used contained various mixtures of the following excipients (pharmasolve, cremophor RH 40, tween 80, PEG 300). See Biological Table 3

Structure (SMILES) | melting point | IC50 (VCAM-1) [nM] | % Inhibition 6 mg/kg sq, bid, d11-13 (Balb/C mice) [%]
C=C(C(=O)c1cccc(C(=O)O)c1)c1cc(-c2cccs2)ccc1OC [Example 56, 3-[2-(2-Methoxy-5-thien-2-yl-phenyl)-acryloyl]-benzoic acid] | 186 to 188 °C | < 3000 | –
C=C(C(=O)c1c(OC)cccc1OC)c1ccc(C(=O)O)cc1-c1cccs1 [Example 36, 4-[1-(2,6-Dimethoxy-benzoyl)-vinyl]-3-thien-2-yl-benzoic acid] | 192 to 195 °C | < 3000 | –
C=C(C(=O)c1cc(-c2cccs2)ccc1OC)c1ccc(C#N)cc1 [Example 53, 4-[1-(2-Methoxy-5-thien-2-yl-benzoyl)-vinyl]-benzonitrile] | 86 to 88 °C | < 3000 | –
C=C(C(=O)c1c(OC)ccc(-c2cc3ccccc3s2)c1OC)c1cccc(OC(C)(C)C(=O)O)c1 [Example 45, 2-{3-[1-(3-Benzo[b]thien-2-yl-2,6-dimethoxy-benzoyl)-vinyl]-phenoxy}-2-methyl-propionic acid] | 135 to 137 °C | < 1000 | –
C=C(C(=O)c1c(C)cccc1C)c1ccc(C(=O)O)cc1-c1cccs1 [Example 33, 4-[1-(2,6-Dimethyl-benzoyl)-vinyl]-3-thien-2-yl-benzoic acid] | 186.5 to 188 °C | < 3000 | –
C=C(C(=O)c1c(OC)ccc(-c2cccs2)c1OC)c1c(F)cccc1C(F)(F)F [Example 64, 1-(2,6-Dimethoxy-3-thien-2-yl-phenyl)-2-(2-fluoro-6-trifluoromethyl-phenyl)-propenone] | 76 to 78 °C | > 10000 | –
C=C(C(=O)c1ccc(C(C)(C)C)cc1)c1cc(-c2cccs2)ccc1OC [Example 57, 1-(4-tert-Butyl-phenyl)-2-(2-methoxy-5-thien-2-yl-phenyl)-propenone] | 130 to 132 °C | < 3000 | –
C=C(C(=O)c1ccc(C(=O)O)cc1)c1cc(-c2cccn2C(=O)OC(C)(C)C)ccc1OC [Example 3, 2-{3-[1-(4-Carboxy-benzoyl)-vinyl]-4-methoxy-phenyl}-pyrrole-1-carboxylic acid tert-butyl ester] | 90 °C (dec.) | < 3000 | –
C=C(C(=O)c1ccc(C(=O)O)cc1)c1cc(-c2cccs2)ccc1OCC(=O)N1CCOCC1 [Example 60] | 206 to 207 °C | > 10000 | –
C=C(C(=O)c1ccc(C(=O)NCCN2CCOCC2)cc1)c1cc(OC)c(OC)c(-c2cccs2)c1 [Example 50, 4-[2-(3,4-Dimethoxy-5-thien-2-yl-phenyl)-acryloyl]-N-(2-morpholin-4-yl-ethyl)-benzamide] | 84 to 87 °C | < 3000 | –
C=C(C(=O)c1ccc(NC(=O)c2ccno2)cc1)c1cc(-c2cccs2)ccc1OC [Example 27, Isoxazole-5-carboxylic acid {4-[2-(2-methoxy-5-thien-2-yl-phenyl)-acryloyl]-phenyl}-amide] | 132.5 to 133.5 °C | < 1000 | –
C=C(C(=O)c1ccc(F)cc1)c1cc(-c2cc3ccccc3s2)c(OC)cc1OC [Example 51, 2-(5-Benzo[b]thien-2-yl-2,4-dimethoxy-phenyl)-1-(4-fluoro-phenyl)-propenone] | 142 to 144 °C | < 3000 | –
C=C(C(=O)c1ccc(Nc2ncccn2)cc1)c1cc(-c2cccs2)ccc1OC [Example 22, 2-(2-Methoxy-5-thien-2-yl-phenyl)-1-[4-(pyrimidin-2-ylamino)-phenyl]-propenone] | 154 to 155 °C | < 1000 | –
C=C(C(=O)c1cc(-c2cc3ccccc3s2)c(OC)cc1OC)c1ccc(OC)cc1 [Example 46, 1-(5-Benzo[b]thien-2-yl-2,4-dimethoxy-phenyl)-2-(4-methoxy-phenyl)-propenone] | 166 to 168 °C | < 3000 | –
C=C(C(=O)c1c(OC)ccc(-c2cccs2)c1OC)c1cc(C(C)(C)C)c(O)c(C(C)(C)C)c1 [Example 34, 2-(3,5-Di-tert-butyl-4-hydroxy-phenyl)-1-(2,6-dimethoxy-3-thien-2-yl-phenyl)-propenone] | 130 to 132.5 °C | > 10000 | –
C=C(C(=O)c1ccc(F)cc1)c1cc(-c2cccs2)ccc1OC [Example 13, 1-(4-Fluoro-phenyl)-2-(2-methoxy-5-thien-2-yl-phenyl)-propenone] | 116 to 121 °C | < 3000 | –
C=C(C(=O)c1ccc(C(=O)O)cc1)c1ccc(OC)c(-c2cccs2)c1 [Example 1, 4-[2-(4-Methoxy-3-thien-2-yl-phenyl)-acryloyl]-benzoic acid] | 163 to 164 °C | < 3000 | –
C=C(C(=O)c1ccc(NS(C)(=O)=O)cc1)c1cc(-c2cccs2)ccc1OC [Example 19, N-{4-[2-(2-Methoxy-5-thien-2-yl-phenyl)-acryloyl]-phenyl}-methane-sulfonamide] | 197 to 198 °C | < 1000 | –
C=C(C(=O)c1cc(OC)c(OC)c(-c2cccs2)c1)c1ccc(C(=O)O)cc1 [Example 16, 4-[1-(3,4-Dimethoxy-5-thien-2-yl-benzoyl)-vinyl]-benzoic acid] | 159 to 160 °C | < 1000 | –
C=C(C(=O)c1c(OC)cccc1OC)c1ccc(OC(C)(C)C(=O)O)c(-c2cccs2)c1 [Example 37, 2-{4-[1-(2,6-Dimethoxy-benzoyl)-vinyl]-2-thien-2-yl-phenoxy}-2-methyl-propionic acid] | 56.5 °C (dec.) | < 6000 | 27
C=C(C(=O)c1ccc(Nc2ncccc2C(=O)O)cc1)c1cc(-c2cccs2)ccc1OC [Example 24, 2-{4-[2-(2-Methoxy-5-thien-2-yl-phenyl)-acryloyl]-phenylamino}-nicotinic acid] | 234 °C (dec.) | < 1000 | –
C=C(C(=O)c1c(OC)ccc(-c2cccs2)c1OC)c1ccc(S(=O)(=O)N(C)CC(=O)O)cc1 [Example 63, ({4-[1-(2,6-Dimethoxy-3-thien-2-yl-benzoyl)-vinyl]-benzenesulfonyl}-methyl-amino)-acetic acid] | 164 to 166 °C | < 10000 | –
C=C(C(=O)c1c(OC)cccc1OC)c1ccccc1-c1cccs1 [Example 43, 1-(2,6-Dimethoxy-phenyl)-2-(2-thien-2-yl-phenyl)-propenone] | 70 to 73 °C | < 3000 | –
C=C(C(=O)c1c(OC)cccc1OC)c1cc(-c2cccs2)ccc1OC(C)(C)C(=O)O [Example 66, 2-{2-[1-(2,6-Dimethoxy-benzoyl)-vinyl]-4-thien-2-yl-phenoxy}-2-methyl-propionic acid] | 72 to 84 °C | < 3000 | –
C=C(C(=O)c1c(OC)ccc(-c2cccs2)c1OC)c1ccc([N+](=O)[O-])cc1 [Example 41, 1-(2,6-Dimethoxy-3-thien-2-yl-phenyl)-2-(4-nitrophenyl)-propenone] | 114 to 118 °C | < 1000 | –
C=C(C(=O)c1ccc(C(=O)O)cc1)c1cc(-c2cnc3ccccc3c2)ccc1OC [Example 2, 4-[2-(2-Methoxy-5-quinolin-3-yl-phenyl)-acryloyl]-benzoic acid] | 232 °C (dec.) | < 1000 | –
C=C(C(=O)c1ccc(C(=O)O)cc1)c1cc(-c2cccnc2)ccc1OC [Example 4, 4-[2-(2-Methoxy-5-pyridin-3-yl-phenyl)-acryloyl]-benzoic acid] | 215 °C (dec.) | < 1000 | –
C=C(C(=O)c1ccc(Nc2ncccc2C(=O)OCC)cc1)c1cc(-c2cccs2)ccc1OC [Example 23, 2-{4-[2-(2-Methoxy-5-thien-2-yl-phenyl)-acryloyl]-phenylamino}-nicotinic acid ethyl ester] | 149 to 151 °C | < 3000 | –
